Columns and labels:
[1] = tested on: patient with Gram negative septicemia; experiment: Blood pressure in septicemia patient given N^G -methyl-L-arginine plus test agent (Examples X, XVI); assay type: in vivo, human; settings: N^G -methyl-L-arginine 20 mg/kg bolus then 10 mg/kg/hr, plus mithramycin 25 μg/kg intravenously over 3-6 hours
Procedure: A patient with Gram negative septicemia and blood pressure of 80/55 mm Hg is administered N^G -methyl-L-arginine in a bolus dose of 20 mg/kg intravenously in saline and thereafter is given a sustained infusion of N^G -methyl-L-arginine at a dosage of 10 mg/kg/hr. Mithramycin (25 μg/kg) is given intravenously in 50 ml saline over 3-6 hours starting at the time of the bolus dose of N^G -methyl-L-arginine. […] The patient is released after 2 days.
A patient with a Gram negative septicemia and blood pressure of 80/55 mm Hg is administered N^G -methyl-L-arginine in a bolus dose of 20 mg/kg intravenously in saline and thereafter is given a sustained infusion of N^G -methyl-L-arginine at a dose of 10 mg/kg/hr. N^ω -Methyl-L-citrulline (40 mg/kg) is given intravenously in 50 ml saline over 3-6 hours starting at the time of the bolus dose of N^G -methyl-L-arginine.

[2] = tested on: argininosuccinate synthetase; experiment: Argininosuccinate synthetase (AS) activity of rat aortic smooth muscle cells induced with LPS/interferon-gamma in presence of test agent (Example I); assay type: cell-based; settings: mithramycin 0.001 to 10 μg/ml with LPS 30 μg/ml plus interferon-gamma 50 ng/ml, 24 hours; FIG. 1
Procedure: (§1) Aortic smooth muscle cells were cultured by explanting segments of the medial layer of aortae from adult male Fischer 344 rats. Aortae were removed aseptically and freed of adventitial and endothelial cells by scraping both the lumenal and abluminal surfaces. Medial fragments (1-2 mm) were allowed to attach to dry Primaria 25 cm^2 tissue culture flasks (Falcon; Oxnard, Calif.) which were kept moist with growth medium until cells emerged. Cultures were fed twice weekly with medium 199 containing 10% fetal bovine serum, 25 mM HEPES, 2 mM L-glutamine, 40 μg/ml endothelial cell growth supplement (Biomedical Technologies; Stoughton, Mass.) and 10 μg/ml gentamycin (GIBCO; Grand Island, N.Y.). When primary cultures became confluent, they were passaged by trypsinization and the explants were discarded. Cells in passage 10-15 were seeded at 20,000/well in 96-well plates. […]
Argininosuccinate synthetase activity was assayed based on the conversion of [^14 C]aspartate to [^14 C]argininosuccinate, as described in O'Brien, W. E., Biochemistry 18, 5353-5356, 1979, with the exception that aspartate was present at a concentration of 30 μm (0.021 μCi/nmol). […] Reactions were allowed to proceed for 90 minutes at 37° C before termination and quantification of the [^14 C]argininosuccinate formed, using ion exchange chromatography on Dowex 1-X8 (200-400 mesh, Bio-Rad).

[3] = tested on: nitric oxide synthase; experiment: Nitric oxide synthase (NOS) activity of cytosol of rat aortic smooth muscle cells induced with LPS/interferon-gamma in presence of test agent (Example I); assay type: cell-based; settings: mithramycin 0.001 to 10 μg/ml with LPS 30 μg/ml plus interferon-gamma 50 ng/ml, 24 hours; FIG. 1
Procedure: as §1
Nitric oxide formation by smooth muscle cell cytosol was measured using a spectrophotometric kinetic microplate assay based on the increase in A405 accompanying the oxidation of Fe^2+ -myoglobin by nitric oxide. […] Assays were performed in triplicate with A405 recorded for each sample every 18 seconds for a period of 15 minutes. The rate of nitric oxide synthesis was calculated from the rate of increase in A405 by linear regression analysis. […]

In the case of COC(C(=O)C(O)C(C)O)C1Cc2cc3cc(OC4CC(OC5CC(O)C(O)C(C)O5)C(O)C(C)O4)c(C)c(O)c3c(O)c2C(=O)C1OC1CC(OC2CC(OC3CC(C)(O)C(O)C(C)O3)C(O)C(C)O2)C(O)C(C)O1 (stereo not drawn) [mithramycin], the blood pressure [1] is reported as “becomes normotensive within minutes of administration of the bolus dose of N^G -methyl-L-arginine and the normotensive state is sustained”, the argininosuccinate synthetase activity [2] is reported as “as a function of its concentration blocks argininosuccinate synthetase activity” and the “nitric oxide synthase activity” value [3] is reported as “blocks argininosuccinate synthetase activity as well as nitric oxide synthase activity”.

From patent US5545625A, “Preventing conversion of citrulline to argininosuccinate to limit pathological nitric oxide overproduction” (The Medical College of Wisconsin Research Foundation, Inc., priority 1994, dated 1996)
